Reference: publication PMC4032193 (Journal of Medicinal Chemistry, 2014)
Like-named read-outs stand apart in the source and are kept apart here.

Columns and labels:
[1] = test system: P. falciparum African D6 clone; assay: microbe, parasite or virus in culture; format: cell-based; conditions: Plasmodium falciparum, D6, read-out: D6 IC50
[2] = test system: P. falciparum Indochina W2 clone; assay: microbe, parasite or virus in culture; format: cell-based; conditions: Plasmodium falciparum, W2, read-out: W2 IC50
[3] = test system: P. falciparum multidrug resistant TM91C235 strain (Thailand); assay: microbe, parasite or virus in culture; format: cell-based; conditions: Plasmodium falciparum, read-out: TM91C235 IC50
[4] = test system: HepG2 (hepatocellular carcinoma) cell line; conditions: human
in vitro = conditions: mouse, microsomes
[5] = human
[6] = mouse
P. berghei = conditions: mouse, in vivo
BoNT/A LC = BoNT/A LC (Clostridium botulinum, UniProt P0DPI0); assay: biochemical
BoNT/A LC, sequence (P0DPI0 2-448 limits assumed): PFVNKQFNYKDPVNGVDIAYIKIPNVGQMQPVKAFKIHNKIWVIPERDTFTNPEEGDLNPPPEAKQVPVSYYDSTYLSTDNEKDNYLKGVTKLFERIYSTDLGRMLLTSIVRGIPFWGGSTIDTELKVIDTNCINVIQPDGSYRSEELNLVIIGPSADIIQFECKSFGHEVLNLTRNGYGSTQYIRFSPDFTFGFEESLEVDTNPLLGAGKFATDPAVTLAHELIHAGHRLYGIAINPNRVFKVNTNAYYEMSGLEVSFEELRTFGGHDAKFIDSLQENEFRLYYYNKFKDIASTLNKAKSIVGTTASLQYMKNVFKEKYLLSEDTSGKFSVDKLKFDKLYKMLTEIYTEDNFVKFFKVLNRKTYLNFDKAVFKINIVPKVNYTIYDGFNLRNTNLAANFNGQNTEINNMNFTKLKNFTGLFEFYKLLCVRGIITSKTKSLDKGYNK

| Compound | SI HepG2/D6 [4] | SI HepG2/TM91C235 [4] | SI HepG2/W2 [4] | also measured |
| --- | --- | --- | --- | --- |
| CCN(CC)CCCC(C)Nc1ccnc2cc(Cl)ccc12 (stereo not drawn) [Compound 9, chloroquine] |  |  |  | IC50 [1]: 12.3 nM |
| CC(=O)O[C@@H]1CC[C@@]2(C)[C@@H](C1)C[C@@H](OC(C)=O)[C@@H]1[C@@H]2C[C@H](OC(C)=O)[C@]2(C)[C@@H]([C@H](C)CCCNCCNc3ccnc4cc(Cl)ccc34)CC[C@@H]12 [Compound 12, N-(3α,7α,12α-Triacetoxy-5β-cholan-24-yl)-N′-(7′-chloroquinolin-4′-yl)ethane-1,2-diamine] |  |  |  | IC50 [2]: 11.4 nM; IC50 [1]: 16.9 nM; IC50 [3]: 27.7 nM |
| CC(=O)O[C@H]1C[C@H]2[C@@H]([C@H](OC(C)=O)C[C@@H]3C[C@H](O)CC[C@@]32C)[C@@H]2CC[C@H]([C@H](C)CCCNCCCNc3ccnc4cc(Cl)ccc34)[C@@]12C [Compound 17] | 84/115/90 | 84/115/90 | 84/115/90 | half-life (in vitro): > 1 h |
| CC(=O)O[C@H]1C[C@H]2[C@@H]([C@H](OC(C)=O)C[C@@H]3C[C@H](NS(C)(=O)=O)CC[C@@]32C)[C@@H]2CC[C@H]([C@H](C)CCCN(C)CCCNc3ccnc4cc(Cl)ccc34)[C@@]12C [Compound 43] | 93/89/139 | 93/89/139 | 93/89/139 | half-life (in vitro): > 1 h |
| CC(=O)O[C@H]1C[C@H]2[C@@H]([C@H](OC(C)=O)C[C@@H]3C[C@H](N(C)C)CC[C@@]32C)[C@@H]2CC[C@H]([C@H](C)CCCNCCNc3ccnc4cc(Cl)ccc34)[C@@]12C [Compound 50, 24-N-[(7-Chloroquinoline-4-yl)amino]ethylamino-3α-N′,N′-dimethylamino-7α,12α-diacetoxy-5β-cholane] | 714/333/435 | 714/333/435 | 714/333/435 | HLM stability (t1/2) [5]: 60/60 min; MLM stability (t1/2) [6]: 60/60 min |
| CC(=O)O[C@H]1C[C@H]2[C@@H]([C@H](OC(C)=O)C[C@@H]3C[C@H](N)CC[C@@]32C)[C@@H]2CC[C@H]([C@H](C)CCCN(C)CCNc3ccnc4cc(Cl)ccc34)[C@@]12C [Compound 54, 24-N-Methyl-N-[(7-chloroquinoline-4-yl)amino]ethylamino-3α-amino-7α,12α-diacetoxy-5β-cholane] | 4993/3995/2327 | 4993/3995/2327 | 4993/3995/2327 | HLM stability (t1/2) [5]: 60/60 min; MLM stability (t1/2) [6]: 60/60 min; protection/cure of mice (P. berghei): failed to protect/cure mice; day postinfection on which mice died (P. berghei; po): 13; signs of compound toxicity upon necropsy (P. berghei; po): no signs of tissue damage caused by compound toxicity |
| CC(=O)O[C@H]1C[C@H]2[C@@H]([C@H](OC(C)=O)C[C@@H]3C[C@H](N(C)C)CC[C@@]32C)[C@@H]2CC[C@H]([C@H](C)CCCN(C)CCNc3ccnc4cc(Cl)ccc34)[C@@]12C [Compound 56, 24-N-Methyl-N-[(7-chloroquinoline-4-yl)amino]ethylamino-3α-N′,N′-dimethylamino-7α,12α-diacetoxy-5β-cholane] | 6824/3920/3176 | 6824/3920/3176 | 6824/3920/3176 | half-life (in vitro): > 1 h |
| CC(=O)O[C@H]1C[C@H]2[C@@H]([C@H](OC(C)=O)C[C@@H]3C[C@H](N(C)C)CC[C@@]32C)[C@@H]2CC[C@H]([C@H](C)CCCN(C)CCCNc3ccnc4cc(Cl)ccc34)[C@@]12C [Compound 57] | 93/35/71 | 93/35/71 | 93/35/71 | HLM stability (t1/2) [5]: 60/60 min; MLM stability (t1/2) [6]: 60/60 min |
| CC(=O)O[C@H]1C[C@H]2[C@@H]([C@H](OC(C)=O)C[C@@H]3C[C@H](NC(=O)OC(C)(C)C)CC[C@@]32C)[C@@H]2CC[C@H]([C@H](C)CCCN(CCCNc3ccnc4cc(Cl)ccc34)CCC[C@@H](C)[C@H]3CC[C@H]4[C@@H]5[C@H](OC(C)=O)C[C@@H]6C[C@H](NC(=O)OC(C)(C)C)CC[C@]6(C)[C@H]5C[C@H](OC(C)=O)[C@]34C)[C@@]12C [Compound 59, N,N-Di(3α-amino-tert-butylcarbamate-7α,12α-diacetoxy-5β-cholan-24-yl)-N′-(7′-chloroquinoline-4′-yl)-1,3-propanediamine] | 96/96/96 | 96/96/96 | 96/96/96 | inhibition at 20 µM (BoNT/A LC; at 20 μM): 6% |
| CC(=O)O[C@H]1C[C@H]2[C@@H]([C@H](OC(C)=O)C[C@@H]3C[C@H](N)CC[C@@]32C)[C@@H]2CC[C@H]([C@H](C)CCCN(CCCNc3ccnc4cc(Cl)ccc34)CCC[C@@H](C)[C@H]3CC[C@H]4[C@@H]5[C@H](OC(C)=O)C[C@@H]6C[C@H](N)CC[C@]6(C)[C@H]5C[C@H](OC(C)=O)[C@]34C)[C@@]12C [Compound 61] | 10/9/7 | 10/9/7 | 10/9/7 |  |
| N=C(N)c1ccc(Oc2ccc(-c3cc4ccc(C(=N)N)cc4[nH]3)cc2)cc1 [NSC 240898, reference compound] |  |  |  | inhibition at 20 µM (BoNT/A LC): 73.3% |
